Broadly, the IC50 is the concentration that gives 50% inhibition. What is called DC50 is the midpoint of the concentration-degradation curve. A higher DC50 goes with a less potent degrader.

Structures are written as SMILES.

One assay relates to OCI-LY10 cells. Put plainly: CellTiter-Glo Luminescent Cell Viability Assay. To be noted: Homo sapiens, 96 h, incubated 4 days, read-out: OCI-LY10 CTG IC50. In kind it is cell-based. How it is done:
Compound-mediated viability effect on OCI-LY10 was quantitatively determined using the CellTiter-Glo® Luminescent Cell Viability Assay kit from Promega (Catalog number G7570) following manufacturer's recommended procedures. Briefly, OCI-LY10 cells were seeded into 384 well plates (Grenier Bio-One, Catalog number 781080) with a density of 10,000 cells per well. Compounds were then added to the assay plate with final top concentration of 10 μM and 1:3 dilution series with total of 9 doses. The final DMSO concentration was normalized to 0.2%. The assay plates were incubated at 37° C. for 4 days under 5% CO2. Then the assay plate was equilibrated at room temperature for 10 minutes. To determine cell viability, 30 μL CellTiter Glo reagent was added to each well and the assay plate was centrifuged at 1000 rpm for 30 second, incubated at room temperature for 10 min, and analyzed by detecting the luminescence using a multimode plate reader (EnVision 2105, PerkinElmer). The data was then analyzed by software Prism 7.0 from GraphPad and the dose response curves were fit using a three-parameter logistic equation to calculate IC50.
The letter codes for OCI-LY10 CTG IC50 include: A (<1 μM), B (1-10 μM), C (>10 μM).
On the technique in general: Cellular ATP, detected with luciferase, serves as a proxy for viable cell number.

A further assay concerns the target T1, IRAK4 (Homo sapiens, UniProt Q9NWZ3).
T1 construct: endogenous in cells; host or cells: OCI-Ly10
T1 sequence (Q9NWZ3 1-460): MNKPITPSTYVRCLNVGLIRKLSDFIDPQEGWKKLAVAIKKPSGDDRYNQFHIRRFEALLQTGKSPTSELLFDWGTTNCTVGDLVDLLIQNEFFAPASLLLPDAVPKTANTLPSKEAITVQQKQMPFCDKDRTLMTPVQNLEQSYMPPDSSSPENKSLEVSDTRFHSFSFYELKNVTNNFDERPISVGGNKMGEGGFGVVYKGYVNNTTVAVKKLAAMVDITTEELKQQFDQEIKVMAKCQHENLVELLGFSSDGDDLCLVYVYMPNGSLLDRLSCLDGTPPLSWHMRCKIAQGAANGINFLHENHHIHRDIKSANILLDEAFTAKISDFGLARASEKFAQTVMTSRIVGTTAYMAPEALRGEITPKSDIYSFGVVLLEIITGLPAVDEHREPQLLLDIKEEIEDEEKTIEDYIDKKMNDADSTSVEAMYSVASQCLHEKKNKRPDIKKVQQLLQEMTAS
In words: OCI-LY10 IRAK MSD assay DC50 (IRAK4 degradation). In kind it is cell-based. To be noted: OCI-Ly10 cells, incubated for 4 hr, concentration of compound required to degrade 50% of protein. How it is done:
A MSD assay is run to determine the concentration of compound required to degrade 50% of protein (DC50).
• Compounds were reconstituted to 10 mM in stock solutions. The stock solutions were diluted to 5 mM and 45 μL of each dilution was transferred to a 384 pp-plate. A 3 fold, 8-point serial dilution was performed by transferring 15 μL of compound into 30 μL DMSO using Janus. • 20 nL of each compound were added into each well of a 96-well plate (Corning3799). • OCI-Ly10 cells were seeded into the 96-well plate at 3.0*10e^5 cells/100 μL/well. • The cell plate was shaken at 720 rpm for 5 min and incubated for 4 hr. • 100 μL of cells were transferred into the 96-PCR plate and spun down at high speed for 5 mins. • The supernatant was discarded and 100 μL of RIPA lysis buffer with proteinase inhibitors was added per well. The plate was then sealed and shaken at 600 rpm and 4° C. for about 20 min. • The plate was then spun down at high speed (about 3200 g) for 30 min and then frozen in a −80° C. fridge. • A bare MSD plate (L15XA-3) was coated with 2 μg/mL of capture antibody (mouse Anti-IRAK4 antibody [2H9], ab119942) in PBS to 40 μL/well and incubated overnight at 4° C.
• The MSD coated plate was washed 3× (150 μL/well) with 1×TBST (CST #9997S). • The MSD plate was then blocked with 150 μL of blocking buffer [3% Blocker A (MSD, R93BA-4) in TBST]/well and shaken for 1 hr at RT and 600 rpm. • The MSD plate was washed 3× (150 μL/well) with 1×TBST. The sample RIPA lysates were then added to the MSD plate (50 μL/well) and shaken for 1 hr at RT and 600 rpm. • The MSD plate was washed 3× (150 μL/well) with 1×TBST and the primary detection antibody (Rabbit Anti-IRAK4 antibody [Y279], ab32511) was added to a final concentration of 1 μg/ml with 25 μL/well. The plate was then shaken for 1 hr at RT and 600 rpm. • The MSD plate was washed 3× (150 μL/well) with 1×TBST and the secondary detection antibody, SULFO-TAG anti-species antibody (Anti Rabbit Antibody (R32AB-5) MSD, R32AB-1) was added to a volume of 25 μL/well at a final concentration of 1 μg/ml. The plate was then shaken for 1 hr at RT and 600 rpm. • The MSD plate was then washed 3× (150 μL/well) with 1×TBST. • 1×MSD reading buffer was then added (150 μL/well) and the plate […].
(MSD, R92TC-2) • The MSD instrument was then read.
The remaining activity was calculated following the formula below:
• The DC50 was calculated by fitting the Curve using Xlfit (v5.3.1.3), equation 201: […]
The letter codes for IRAK4 DC50 indicate the concentration of compound required to degrade 50% of protein: A (<0.01 μM), B (0.01-0.1 μM), C (>0.1-0.2 μM), D (>0.2 μM).

`COc1cc2nn([C@H]3CC[C@H](CN4CCC(c5ccc6c(N7CCC(=O)NC7=O)cncc6c5)CC4)CC3)cc2cc1NC(=O)c1cccc(C(F)(F)F)n1` [I-17]: in the assay with OCI-LY10 cells, the IC50 is less than 1000 nM.
On the same count and under the same terms, the value for `CN(C[C@H]1CC[C@H](n2cc3cc(NC(=O)c4cccc(C(F)(F)F)n4)c(C(C)(C)O)cc3n2)CC1)C1CCN(c2cccc3c(N4CCC(=O)NC4=O)cncc23)CC1` [I-7] was more than 10000 nM; that for `CC(C)(O)c1cc2nn([C@H]3CC[C@H](CN4CCC(c5ccc6c(N7CCC(=O)NC7=O)cncc6c5)CC4)CC3)cc2cc1NC(=O)c1cccc(C(F)(F)F)n1` [I-6] was 1000 to 10000 nM.
As to `CC(C)Nc1cc(-c2ccc3cc(C#N)cnn23)ncc1C(=O)N[C@H]1CC[C@H](CN2CCC(c3ccn4c(N5CCC(=O)NC5=O)cnc4c3)CC2)CC1` [I-74], the DC50 on IRAK4 was in the range of 10 to 100 nM.
On the same count and under the same terms, the same measure for `COc1cc2nn([C@H]3CC[C@H](CN(C)C4CCN(c5ccn6c(N7CCC(=O)NC7=O)cnc6c5)CC4)CC3)cc2cc1NC(=O)c1cc(F)cc(C(F)(F)F)c1` [I-86]: 10 to 100 nM; for `O=C1CCN(c2cnc3cc(C#CCN4CCN(C[C@H]5CC[C@H](n6cc(NC(=O)c7cnn8ccc(N9C[C@H]%10C[C@@H]9CO%10)nc78)c(C(F)F)n6)CC5)CC4)ccn23)C(=O)N1` [I-75]: less than 10 nM.
Take `C[C@H]1CN(C[C@H]2CC[C@H](n3cc(NC(=O)c4cnn5ccc(N6C[C@H]7C[C@@H]6CO7)nc45)c(C(F)F)n3)CC2)CC[C@@H]1OCC#Cc1cccn2c(N3CCC(=O)NC3=O)cnc12` [I-61]: the DC50 at IRAK4 was less than 10 nM.
Consider `COc1cc2nn([C@H]3CC[C@H](CN4CCC(c5ccn6c(N7CCC(=O)NC7=O)cnc6c5)CC4)CC3)cc2cc1NC(=O)c1cncc(C#N)c1` [I-84], for which the DC50 at IRAK4 was more than 200 nM.
On the same count and under the same terms, the value for `O=C1CCN(c2cnc3cc(C#CCO[C@H]4CCN(C[C@H]5CC[C@H](n6cc(NC(=O)c7cnn8ccc(N9C[C@H]%10C[C@@H]9CO%10)nc78)c(C(F)F)n6)CC5)C[C@H]4F)ccn23)C(=O)N1` [I-71] was less than 10 nM.
On the same count and under the same terms, the value for `COc1cc2nn([C@H]3CC[C@H](CN4CCN(c5ccn6c(N7CCC(=O)NC7=O)cnc6c5)CC4)CC3)cc2cc1NC(=O)c1cccc(C(F)(F)F)n1` [I-68] was less than 10 nM.
In the case of `CN(C[C@H]1CC[C@H](n2cc3cc(NC(=O)c4cccc(C(F)(F)F)n4)ccc3n2)CC1)C1CCN(c2ccn3c(N4CCC(=O)NC4=O)cnc3c2)CC1` [I-35], the DC50 at IRAK4 is less than 10 nM.
`COc1cc2nc([C@H]3CC[C@H](CN(C)C4CCN(c5ccn6c(N7CCC(=O)NC7=O)cnc6c5)CC4)CC3)sc2cc1NC(=O)c1cccc(C(F)(F)F)n1` [I-80] returned a DC50 at IRAK4 of 10 to 100 nM.
For the compound `CN(C[C@H]1CC[C@H](n2cc3cc(NC(=O)c4cccc(C(F)(F)F)n4)c(C(C)(C)O)cc3n2)CC1)C1CCN(c2ccc3c(N4CCC(=O)NC4=O)cncc3c2)CC1` [I-5], the IC50 in the assay with OCI-LY10 cells was in the range of 1000 to 10000 nM.
`CC(C)Nc1cc(-n2ccc3cc(C#N)cnc32)ncc1C(=O)N[C@H]1CC[C@H](CN2CCC(c3cccn4c(N5CCC(=O)NC5=O)cnc34)CC2)CC1` [I-76]: the DC50 at IRAK4 was 10 to 100 nM.
The same measure, in the same setting: the same measure for `COc1cc2nc([C@H]3CC[C@H](CN4CCC(c5ccn6c(N7CCC(=O)NC7=O)cnc6c5)CC4)CC3)sc2cc1NC(=O)c1cccc(C(F)(F)F)n1` [I-78]: 10 to 100 nM.
On the same count and under the same terms, the same measure for `O=C1CCN(c2cnc3cc(C4CCN(C[C@H]5C[C@H](n6cc7cc(NC(=O)c8cccc(C(F)(F)F)n8)ccc7n6)C5)CC4)ccn23)C(=O)N1` [I-38]: 10 to 100 nM.
Still for that read-out and setting: the same measure for `O=C1CCN(c2cnc3cc(C#CCO[C@@H]4CCN(C[C@H]5C[C@H](n6cc(NC(=O)c7cnn8ccc(N9C[C@H]%10C[C@@H]9CO%10)nc78)c(C(F)F)n6)C5)C[C@@H]4F)ccn23)C(=O)N1` [I-42]: less than 10 nM.
In turn, `Cc1cc2nn([C@H]3CC[C@H](CN4CCN(c5cccn6c(N7CCC(=O)NC7=O)cnc56)CC4)CC3)cc2cc1NC(=O)c1cccc(C(F)(F)F)n1` [I-49] had a half-maximal degradation concentration (DC50) on IRAK4 of 10 to 100 nM.
The same measure, in the same setting: the same measure for `O=C1CCN(c2cncc3cc(C4CCN(C[C@H]5CC[C@H](n6cc7cc(NC(=O)c8cccc(C(F)(F)F)n8)ncc7n6)CC5)CC4)ccc23)C(=O)N1` [I-18]: less than 10 nM; for `N#Cc1cnc2c(C(=O)Nc3ccc4nn([C@H]5CC[C@H](CN6CCC(c7ccn8c(N9CCC(=O)NC9=O)cnc8c7)CC6)CC5)cc4c3)cnn2c1` [I-72]: more than 200 nM.
`C[C@H]1CN(C[C@H]2CC[C@H](n3cc(NC(=O)c4cnn5ccc(N6C[C@H]7C[C@@H]6CO7)nc45)c(C(F)F)n3)CC2)CC[C@@H]1OCC#Cc1ccn2c(N3CCC(=O)NC3=O)cnc2c1` [I-63]: the DC50 on IRAK4 is less than 10 nM.
The same measure, in the same setting: the value for `CN(C[C@H]1CC[C@H](n2cc3cc(NC(=O)c4cccc(C(F)(F)F)n4)ncc3n2)CC1)C1CCN(c2cccn3c(N4CCC(=O)NC4=O)cnc23)CC1` [I-30] was 100 to 200 nM.
The same measure, in the same setting: the same measure for `N#Cc1cc2nn([C@H]3CC[C@H](CN4CCC(c5cccn6c(N7CCC(=O)NC7=O)cnc56)CC4)CC3)cc2cc1NC(=O)c1cccc(C(F)(F)F)n1` [I-67]: less than 10 nM.
On to `COc1cc2nn([C@H]3CC[C@H](CN4C5CCC4CN(c4ccn6c(N7CCC(=O)NC7=O)cnc6c4)C5)CC3)cc2cc1NC(=O)c1cccc(C(F)(F)F)n1` [I-45], for which the DC50 on IRAK4 is 10 to 100 nM.
Still for that read-out and setting: the same measure for `COc1cc2nc([C@H]3CC[C@H](CN4CCC(c5cc(OC)c6ncc(N7CCC(=O)NC7=O)n6c5)CC4)CC3)sc2cc1NC(=O)c1cccc(C(F)(F)F)n1` [I-58]: more than 200 nM; for `CN(C[C@H]1CC[C@H](n2cc3cc(NC(=O)c4cccc(C(F)(F)F)n4)ccc3n2)CC1)C1CCN(c2cccn3c(N4CCC(=O)NC4=O)cnc23)CC1` [I-27]: more than 200 nM; for `O=C1CCN(c2cnc3cc(C#CCO[C@@H]4CCN(C[C@H]5CC[C@H](n6cc(NC(=O)c7cnn8ccc(N9C[C@H]%10C[C@@H]9CO%10)nc78)c(C(F)F)n6)CC5)C[C@@H]4F)ccn23)C(=O)N1` [I-70]: less than 10 nM.
Same read-out and setting: the same measure for `COc1cc2nn([C@H]3CC[C@H](CN4CCC(c5cccn6c(N7CCC(=O)NC7=O)cnc56)CC4)CC3)cc2cc1NC(=O)c1cncc(C#N)c1` [I-83]: 100 to 200 nM; for `COc1cc2nc([C@H]3CC[C@H](CN(C)C4CCN(c5cccn6c(N7CCC(=O)NC7=O)cnc56)CC4)CC3)sc2cc1NC(=O)c1cccc(C(F)(F)F)n1` [I-44]: 10 to 100 nM; for `CC(C)Nc1cc(-n2ccc3cc(C#N)cnc32)ncc1C(=O)N[C@H]1CC[C@H](CN2CCC(c3ccn4c(N5CCC(=O)NC5=O)cnc4c3)CC2)CC1` [I-77]: 10 to 100 nM.
On the same count and under the same terms, the value for `COc1cc2nn([C@H]3CC[C@H](CN(C)C4CCN(c5ccn6c(N7CCC(=O)NC7=O)cnc6c5)CC4)CC3)cc2cc1NC(=O)c1cncc(Cl)c1` [I-87] was 10 to 100 nM.

The record behind these values is US20250375526A1, “IRAK DEGRADERS AND USES THEREOF” (Kymera Therapeutics, Inc., priority 2020, published 2025).
